The results in this text go back to ChEMBL document CHEMBL4130472, “Synthesis of naphthazarin derivatives and identification of novel thioredoxin reductase inhibitor as potential anticancer agent” (Eur J Med Chem, 2017).

Calls of active or inactive are those of the source. The calls are words filed in the database; no cut-off is given here.

The subject of data set [1] is HL-60. The experiment in a line: Induction of ROS production in human HL60 cells at 1 to 5 uM incubated for 1 hr by DCFH-DA staining based fluorescence assay. Type of data set: functional, cell-based.
The test system of data set [2] is HL-60. The experiment in a line: Cytotoxicity in human HL60 cells assessed as induction of cell death at 1 uM incubated for 24 hrs by MTT assay. Type of data set: functional.
Data set [3] relates to HEK-293T. The data set is described as follows: Cytotoxicity in HEK293T cells overexpressing TrxR1 (unknown origin) cells assessed as reduction in cell viability at 1 to 5 uM incubated for 48 hrs by MTT assay. Format: functional, cell-based. As to conditions: Homo sapiens.
The subject of data set [4] is HL-60. The experiment in a line: Reduction in intracellular thiols in human HL60 cells at 1 to 5 uM incubated for 24 hrs by DTNB titration method. Format: functional, cell-based.
Data set [5] deals with T1, Thioredoxin reductase 1, cytoplasmic (Homo sapiens, UniProt Q16881).
T1 sequence (Q16881 whole entry): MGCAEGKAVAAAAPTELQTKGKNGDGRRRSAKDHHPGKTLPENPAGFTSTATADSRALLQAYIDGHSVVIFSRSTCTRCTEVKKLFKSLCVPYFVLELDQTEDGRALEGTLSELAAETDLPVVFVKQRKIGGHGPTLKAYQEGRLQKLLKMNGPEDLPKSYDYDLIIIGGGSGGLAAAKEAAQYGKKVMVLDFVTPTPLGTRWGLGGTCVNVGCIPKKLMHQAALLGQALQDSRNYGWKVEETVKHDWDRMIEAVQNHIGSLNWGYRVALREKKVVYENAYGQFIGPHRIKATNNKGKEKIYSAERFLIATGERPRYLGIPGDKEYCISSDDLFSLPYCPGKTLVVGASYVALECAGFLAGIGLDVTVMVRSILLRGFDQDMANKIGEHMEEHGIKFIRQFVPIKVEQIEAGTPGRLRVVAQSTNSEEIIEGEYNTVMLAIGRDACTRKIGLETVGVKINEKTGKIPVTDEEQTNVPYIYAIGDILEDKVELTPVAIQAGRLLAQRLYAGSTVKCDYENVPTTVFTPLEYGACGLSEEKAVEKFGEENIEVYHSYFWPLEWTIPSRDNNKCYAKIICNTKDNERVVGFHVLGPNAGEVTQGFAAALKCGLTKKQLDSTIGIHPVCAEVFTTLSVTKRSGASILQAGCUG
The experiment in a line: Inhibition of TrxR1 in human HL60 cells incubated for 24 hrs by endpoint insulin reduction assay. Type of data set: cell-based.

The test system of data set [6] is HEK-293T. The data set is described as follows: Cytotoxicity in HEK293T cells transfected with pIRESneo construct assessed as reduction in cell viability at 1 to 5 uM incubated for 48 hrs by MTT assay. Format: functional, cell-based. As to conditions: Homo sapiens.
Data set [7] has as its system HL-60. The data set is described as follows: Cytotoxicity in human HL60 cells assessed as cell viability at 20 uM incubated for 48 hrs by MTT assay. As to conditions: HL-60, 48 h, read-out: Activity. Type of data set: functional.
In data set [8] the test system is HL-60. The data set is described as follows: Cytotoxicity in human HL60 cells assessed as cell viability at 1 to 5 uM incubated for 24 hrs by MTT assay. Type of data set: functional, cell-based.
The test system of a further data set is L02. The data set is described as follows: Cytotoxicity in human L02 cells assessed as reduction in cell viability at 1 to 5 uM incubated for 48 hrs by MTT assay. As to conditions: l02, 48 h. Format: cell-based.
For data set [9], the system named is HL-60. The experiment in a line: Induction of apoptosis in human HL60 cells assessed as increase in caspase-3 activity at 1 to 3 uM incubated for 24 hrs using Ac-DEVD-pNA substrate by colorimetric assay. Format: functional, cell-based.
Data set [10] addresses T2, Thioredoxin reductase 1, cytoplasmic (Rattus norvegicus) (UniProt O89049).
T2 sequence (whole entry): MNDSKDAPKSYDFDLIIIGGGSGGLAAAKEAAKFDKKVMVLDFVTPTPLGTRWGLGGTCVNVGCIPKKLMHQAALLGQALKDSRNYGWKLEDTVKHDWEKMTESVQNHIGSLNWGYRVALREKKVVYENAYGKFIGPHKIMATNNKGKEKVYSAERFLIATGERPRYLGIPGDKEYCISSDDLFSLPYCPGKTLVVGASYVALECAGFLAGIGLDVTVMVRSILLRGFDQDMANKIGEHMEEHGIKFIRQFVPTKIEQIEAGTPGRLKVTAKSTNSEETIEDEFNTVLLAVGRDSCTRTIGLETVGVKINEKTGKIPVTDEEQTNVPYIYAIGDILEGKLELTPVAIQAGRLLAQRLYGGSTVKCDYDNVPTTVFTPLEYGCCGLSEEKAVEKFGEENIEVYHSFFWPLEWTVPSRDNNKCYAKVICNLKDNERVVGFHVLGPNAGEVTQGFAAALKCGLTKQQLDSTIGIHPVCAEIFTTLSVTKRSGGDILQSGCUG
The experiment in a line: Irreversible inhibition of NADPH-reduced rat TrxR1 assessed as suppression of DTNB reduction incubated for 1 hr followed by compound removal from incubation mixture by column desalting.

Data set [11] deals with HL-60. The experiment in a line: Induction of apoptosis in human HL60 cells 1 uM incubated for 24 hrs by Annexin V/propidium iodide staining based flow cytometry. Format: functional.
The target of data set [12] is T3, Glutathione reductase (Rattus norvegicus) (UniProt P70619).
T3 sequence (whole entry): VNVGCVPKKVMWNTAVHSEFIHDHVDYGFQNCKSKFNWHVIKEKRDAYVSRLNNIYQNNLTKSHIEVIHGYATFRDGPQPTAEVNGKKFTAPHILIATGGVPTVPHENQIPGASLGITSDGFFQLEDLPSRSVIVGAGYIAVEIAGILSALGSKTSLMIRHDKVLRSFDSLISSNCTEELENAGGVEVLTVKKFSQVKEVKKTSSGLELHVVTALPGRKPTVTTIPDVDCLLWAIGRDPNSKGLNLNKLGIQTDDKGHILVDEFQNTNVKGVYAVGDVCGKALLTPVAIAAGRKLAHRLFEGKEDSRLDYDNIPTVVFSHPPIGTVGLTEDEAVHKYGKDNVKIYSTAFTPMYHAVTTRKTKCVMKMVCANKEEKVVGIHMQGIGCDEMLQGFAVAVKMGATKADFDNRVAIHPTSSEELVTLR
The data set is described as follows: Inhibition of NADPH-reduced rat glutathione reductase at 1 to 5 uM incubated for 1 hr in presence of NADPH and GSSG.

The test system of data set [13] is HeLa. The experiment in a line: Cytotoxicity in human HeLa cells transfected with shTrxR1 assessed as reduction in cell viability at 1 to 5 uM incubated for 48 hrs by MTT assay. Format: functional, cell-based.
Data set [14] deals with HL-60. The experiment in a line: Cytotoxicity in human HL60 cells assessed as cell viability at 1 to 5 uM incubated for 48 hrs after 24 hrs pre-treatment with 50 uM BSO before compound addition by MTT assay. Format: functional, cell-based.
The test system of data set [15] is HL-60. The data set is described as follows: Induction of apoptosis in human HL60 cells 3 uM incubated for 24 hrs by Annexin V/propidium iodide staining based flow cytometry. Format: functional.
For data set [16], the system named is HL-60. The experiment in a line: Cytotoxicity in human HL60 cells assessed as reduction in cell viability incubated for 72 hrs by MTT assay. Format: functional, cell-based. As to conditions: HL-60, 72 h.
The subject of data set [17] is HL-60. The data set is described as follows: Potentiation of H2O2-induced cytotoxicity in human HL60 cells assessed as induction of cell death at 3 uM incubated for 24 hrs by MTT assay. Type of data set: functional, cell-based.
In data set [18] the test system is HL-60. The experiment in a line: Induction of apoptosis in human HL60 cells 5 uM incubated for 24 hrs by Annexin V/propidium iodide staining based flow cytometry. Format: functional.
In data set [19] the test system is HL-60. The experiment in a line: Induction of apoptosis in human HL60 cells assessed as increase in caspase-3 activity at 5 uM incubated for 24 hrs using Ac-DEVD-pNA substrate by colorimetric assay. Format: functional, cell-based.
In data set [20] the test system is HeLa. The experiment in a line: Cytotoxicity in human HeLa cells transfected with non targetting vector assessed as reduction in cell viability at 1 to 5 uM incubated for 48 hrs by MTT assay. Format: functional, cell-based.

Consider `CC1=CC(=O)c2c(O)ccc(O)c2C1=O`, for which the result with HL-60 [1], in the data set with HL-60 [4], in the data set with HEK-293T [6], in the data set on HL-60 [8], in the data set with HL-60 [9] and with HeLa [13] was Active. The outcome in the data set with HL-60 [14], in the data set with HL-60 [17] and in the data set with HeLa [20] was Active. The Activity is 27% with HL-60 [2]; “Non-Toxic” with L02; 23% in the data set with HL-60 [11]; 42% in the data set on HL-60 [15]; 56% in the data set on HL-60 [18]. Besides, the result in the data set with HEK-293T [3] and in the data set with HL-60 [19] was inactive. In addition, the values for the 50% inhibitory concentration (IC50) (in data set [5]; in the data set with HL-60 [16]) were 2.4 µM and 0.64 µM, respectively. Also, the viability at 20 µM in the data set on HL-60 [7] was 0%. Also, the inhibition entry in [10] is “Active”. Moreover, the inhibition entry in data set [12] was “inactive”.
